Results as given in article PMC4531110 (Chemical biology & drug design, 2015).
“Also recorded” adds a separate entry of the source. Like-named read-outs stand apart in the source and are kept apart here.

Legend:
MDCK cells [1] = details: cited from earlier work
[2] = tested on: A/WSN/33 influenza virus (WSN-Ren luciferase virus) in MDCK-HA cells; details: cell-based viral replication (luciferase) assay; cited from earlier work
influenza RNA promoter [3] = details: from peak intensity of imino protons of U26, G13 and G24; cited from earlier work
WSN-Ren luciferase virus = assay: Viral replication assay by RT-PCR, WSN nucleoprotein mRNA level in MDCK-HA cells; assay type: cell-based, influenza A virus; details: 50 μM, standardized against beta-actin, vs DMSO
[4] = tested on: A/WSN/33 influenza virus (WSN-Ren luciferase virus) in MDCK-HA cells; details: for IC50/CC50: ratio of WSN-Ren IC50 to ATPlite CC50
influenza RNA promoter [5] = assay type: binding, influenza A virus; details: for line broadening of the imino protons of U27: 1D 1H NMR; for Kd: pH 6; for binding to the RNA promoter (1D 1H NMR, imino protons of U26, G13): 30 or 50 μM RNA promoter
in vitro = details: dog
[6] = tested on: wild-type influenza virus (A/Puerto Rico/8/1935); assay type: cell-based
MDCK cells [7] = tested on: MDCK cells
[8] = ATPlite assay for cytotoxicity assessment; details: dog, MDCK cells (results text: MDCK-HA cells)

Q: Which results are given for `COc1cc2nc(N3CCNCC3)nc(N)c2cc1OC` [Compound 1, 6,7-dimethoxy-2-(1-piperazinyl)-4-quinazolinamine]?
A: CC50 (MDCK cells [1]): > 1000 µM; IC50 [2]: 549 µM; Kd (influenza RNA promoter [3]): 50.5 ± 9 µM; inhibition of viral nucleoprotein mRNA production (WSN-Ren luciferase virus): not effective; IC50/CC50 [4]: <0.55; line broadening of the imino protons of U27 (influenza RNA promoter [5]): caused line broadening of the imino protons of U27; Kd (influenza RNA promoter [5]): 61.5 µM

Q: For `COc1cc2nc(N3CCN(C(=O)CNC(=O)CNC(=O)CN)CC3)nc(N)c2cc1OC` [Compound 3, 2-amino-N-(2-((2-(4-(4-amino-6,7-dimethoxyquinazolin-2-yl)piperazin-1-yl)-2-oxoethyl)amino)-2-oxoethyl)acetamide], which CC50 at 24 h (in vitro) is on record?
A: > 250 µM

Q: And the “line broadening of the imino protons of U27” value (“line broadening” below) (influenza RNA promoter [5])?
A: caused line broadening of the imino protons of U27

Q: And the “binding to the RNA promoter (1D 1H NMR, imino protons of U26, G13)” value (“binding to the RNA promoter” below) (influenza RNA promoter [5])?
A: bound to the influenza RNA promoter; also recorded: compound binding to the RNA promoter

Q: And the Kd (influenza RNA promoter [5])?
A: 132 µM

Q: For `COc1cc2nc(N3CCN(C(=O)CCCCN)CC3)nc(N)c2cc1OC` [Compound 4, 5-amino-1-(4-(4-amino-6,7-dimethoxyquinazolin-2-yl)piperazin-1-yl)pentan-1-one], which CC50 at 24 h (in vitro) is on record?
A: > 250 µM

Q: What about the “line broadening” value (influenza RNA promoter [5]) of the same molecule?
A: caused line broadening of the imino protons of U27

Q: And the “binding to the RNA promoter” value (influenza RNA promoter [5])?
A: bound to the influenza RNA promoter; also recorded: compound binding to the RNA promoter

Q: Which CC50 at 24 h (in vitro) does the source give for `COc1cc2nc(N3CCN(S(C)(=O)=O)CC3)nc(N)c2cc1OC` [Compound 5, 6,7-dimethoxy-2-(4-(methylsulfonyl)piperazin-1-yl)quinazolin-4-amine] here?
A: > 250 µM

Q: What about the “line broadening” value (influenza RNA promoter [5]) of the same molecule?
A: caused line broadening of the imino protons of U27

Q: And the “binding to the RNA promoter” value (influenza RNA promoter [5])?
A: bound to the influenza RNA promoter; also recorded: compound binding to RNA promoter

Q: Which results are given for `CCC(=O)N1CCN(c2nc(N)c3cc(OC)c(OC)cc3n2)CC1` [Compound 6, 1-(4-(4-amino-6,7-dimethoxyquinazolin-2-yl)piperazin-1-yl)propan-1-one]?
A: CC50 at 24 h (in vitro): > 250 µM; IC50/CC50 [4]: <0.16; binding to the RNA promoter (1D 1H NMR, imino protons of U26, G13) (influenza RNA promoter [5]): compound binding to RNA promoter; Kd (influenza RNA promoter [5]): 114 µM

Q: Which CC50 at 24 h (in vitro) does the source give for `COc1cc2nc(N3CCN(C(=O)C(C)C)CC3)nc(N)c2cc1OC` [Compound 7, 1-(4-(4-amino-6,7-dimethoxyquinazolin-2-yl)piperazin-1-yl)-2-methylpropan-1-one] here?
A: > 250 µM

Q: And the IC50 [4]?
A: 33.9 ± 23.2 µM

Q: What about the IC50/CC50 [4] of the same molecule?
A: <0.14

Q: What about the “line broadening” value (influenza RNA promoter [5]) of the same molecule?
A: caused line broadening of the imino protons of U27

Q: And the “binding to the RNA promoter” value (influenza RNA promoter [5])?
A: compound binding to RNA promoter

Q: What about the Kd (influenza RNA promoter [5]) of the same molecule?
A: 158 µM

Q: What does the source list for `CCCC(=O)N1CCN(c2nc(N)c3cc(OC)c(OC)cc3n2)CC1` [Compound 8, 1-(4-(4-amino-6,7-dimethoxyquinazolin-2-yl)piperazin-1-yl)butan-1-one]?
A: CC50 at 24 h (in vitro): > 250 µM; IC50 [4]: 44.2 ± 11.3 µM; IC50/CC50 [4]: <0.18; binding to the RNA promoter (1D 1H NMR, imino protons of U26, G13) (influenza RNA promoter [5]): compound binding to RNA promoter; Kd (influenza RNA promoter [5]): 44.4 µM

Q: With `COc1cc2nc(N3CCN(C(=O)CCO)CC3)nc(N)c2cc1OC` [Compound 9, 1-(4-(4-amino-6,7-dimethoxyquinazolin-2-yl)piperazin-1-yl)-3-hydroxypropan-1-one] as the molecule, how does the CC50 at 24 h (in vitro) read?
A: > 250 µM

Q: And the “line broadening” value (influenza RNA promoter [5])?
A: caused line broadening of the imino protons of U27

Q: And the “binding to the RNA promoter” value (influenza RNA promoter [5])?
A: bound to the influenza RNA promoter; also recorded: compound binding to RNA promoter

Q: Which “inhibition of A/PR8 nucleoprotein mRNA level” value [6] does the source give for `COc1cc2nc(N3CCN(C(=O)C4CC4)CC3)nc(N)c2cc1OC` [Compound 10, (4-(4-amino-6,7-dimethoxyquinazolin-2-yl)piperazin-1-yl)(cyclopropyl)methanone] here?
A: significant dose-dependent inhibitory activity; also recorded: showed inhibitory effects

Q: What about the CC50 at 24 h (in vitro) of the same molecule?
A: > 250 µM

Q: And the IC50 [4]?
A: 34.2 ± 17.2 µM

Q: What about the IC50/CC50 [4] of the same molecule?
A: <0.14

Q: And the “binding to the RNA promoter” value (influenza RNA promoter [5])?
A: compound binding to RNA promoter

Q: And the Kd (influenza RNA promoter [5])?
A: 127 µM

Q: For `COc1cc2nc(N3CCN(C(=O)C(C)OC)CC3)nc(N)c2cc1OC` (centres unmarked) [Compound 11, 1-(4-(4-amino-6,7-dimethoxyquinazolin-2-yl)piperazin-1-yl)-2-methoxypropan-1-one], which CC50 at 24 h (in vitro) is on record?
A: > 250 µM

Q: What about the “line broadening” value (influenza RNA promoter [5]) of the same molecule?
A: caused line broadening of the imino protons of U27

Q: And the “binding to the RNA promoter” value (influenza RNA promoter [5])?
A: bound to the influenza RNA promoter; also recorded: compound binding to RNA promoter

Q: For `COc1cc2nc(N3CCN(C(=O)C45CC6CC(CC(C6)C4)C5)CC3)nc(N)c2cc1OC` [Compound 12, (1r,3R,5S)-adamantan-1-yl(4-(4-amino-6,7-dimethoxyquinazolin-2-yl)piperazin-1-yl)methanone], which CC50 (MDCK cells [7]) is on record?
A: 16.4 µM

Q: And the IC50 [4]?
A: > 250 µM

Q: And the IC50/CC50 [4]?
A: >15.24

Q: And the “binding to the RNA promoter” value (influenza RNA promoter [5])?
A: bound to the influenza RNA promoter; also recorded: compound binding to RNA promoter

Q: Which CC50 at 24 h [8] does the source give for `COc1cc2nc(N3CCN(C(=O)C4CCCO4)CC3)nc(N)c2cc1OC` (centres unmarked) [Compound 13, (4-(4-amino-6,7-dimethoxyquinazolin-2-yl)piperazin-1-yl)(tetrahydrofuran-2-yl)methanone] here?
A: > 250 µM

Q: What does the source list for `COc1cc2nc(N3CCN(C(=O)c4ccco4)CC3)nc(N)c2cc1OC` [Compound 14, (4-(4-amino-6,7-dimethoxyquinazolin-2-yl)piperazin-1-yl)(furan-2-yl)methanone]?
A: CC50 at 24 h [8]: 78.2 µM; IC50/CC50 [4]: 0.36; line broadening of the imino protons of U27 (influenza RNA promoter [5]): caused line broadening of the imino protons of U27; binding to the RNA promoter (1D 1H NMR, imino protons of U26, G13) (influenza RNA promoter [5]): compound binding to RNA promoter

Q: With `COc1cc2nc(N3CCN(C(=O)c4cccs4)CC3)nc(N)c2cc1OC` [Compound 15, (4-(4-amino-6,7-dimethoxyquinazolin-2-yl)piperazin-1-yl)(thiophen-2-yl)methanone] as the molecule, how does the CC50 at 24 h (in vitro) read?
A: 67 µM

Q: And the IC50/CC50 [4]?
A: 0.25

Q: What about the “binding to the RNA promoter” value (influenza RNA promoter [5]) of the same molecule?
A: compound binding to RNA promoter

Q: And the Kd (influenza RNA promoter [5])?
A: 221 µM

Q: With `COc1cc2nc(N3CCN(C(=O)c4ccccc4)CC3)nc(N)c2cc1OC` [Compound 16, (4-(4-amino-6,7-dimethoxyquinazolin-2-yl)piperazin-1-yl)(phenyl)methanone] as the molecule, how does the CC50 at 24 h (in vitro) read?
A: > 250 µM

Q: What about the IC50/CC50 [4] of the same molecule?
A: <0.43

Q: And the “binding to the RNA promoter” value (influenza RNA promoter [5])?
A: compound binding to RNA promoter

Q: What about the Kd (influenza RNA promoter [5]) of the same molecule?
A: 321 µM

Q: With `CCOC(=O)C1=C[C@@H](OC(CC)CC)[C@H](NC(C)=O)[C@@H](N)C1` [Oseltamivir phosphate, oseltamivir phosphate, reference compound] as the molecule, how does the “inhibition of A/PR8 nucleoprotein mRNA level” value [6] read?
A: showed inhibitory effects
